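48-hour exposure; five concentrations; linearly interpolated endpoints. The concentration for 50% growth inhibition is given as GI50. At the TGI there is no net growth.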
Tests used:
Assay in all cases: NCI tumour cell line growth inhibition, 48 h
786-0 renal = test system: 786-0 renal
A498 renal = test system: A498 renal
A549 NSCLC = test system: A549 NSCLC
ACHN renal = test system: ACHN renal
BT-549 breast = test system: BT-549 breast
CAKI-1 renal = test system: CAKI-1 renal
CCRF-CEM leukemia = test system: CCRF-CEM leukemia
COLO 205 colon = test system: COLO 205 colon
DU-145 prostate = test system: DU-145 prostate
EKVX NSCLC = test system: EKVX NSCLC
HCC-2998 colon = test system: HCC-2998 colon
HCT-116 colon = test system: HCT-116 colon
HCT-15 colon = test system: HCT-15 colon
HL-60(TB) leukemia = test system: HL-60(TB) leukemia
HOP-62 NSCLC = test system: HOP-62 NSCLC
HOP-92 NSCLC = test system: HOP-92 NSCLC
HS 578T breast = test system: HS 578T breast
HT29 colon = test system: HT29 colon
IGROV1 ovarian = test system: IGROV1 ovarian
K-562 leukemia = test system: K-562 leukemia
KM12 colon = test system: KM12 colon
LOX IMVI melanoma = test system: LOX IMVI melanoma
M14 melanoma = test system: M14 melanoma
MALME-3M melanoma = test system: MALME-3M melanoma
MCF7 breast = test system: MCF7 breast
MDA-MB-231 breast = test system: MDA-MB-231 breast
MDA-MB-435 = test system: MDA-MB-435
MOLT-4 leukemia = test system: MOLT-4 leukemia
NCI-H226 lung = test system: NCI-H226 lung
NCI-H23 lung = test system: NCI-H23 lung
NCI-H460 lung = test system: NCI-H460 lung
NCI-H522 lung = test system: NCI-H522 lung
NCI/ADR-RES ovarian = test system: NCI/ADR-RES ovarian
OVCAR-3 ovarian = test system: OVCAR-3 ovarian
OVCAR-4 ovarian = test system: OVCAR-4 ovarian
OVCAR-5 ovarian = test system: OVCAR-5 ovarian
OVCAR-8 ovarian = test system: OVCAR-8 ovarian
PC-3 prostate = test system: PC-3 prostate
RPMI-8226 leukemia = test system: RPMI-8226 leukemia
SF-268 CNS = test system: SF-268 CNS
SF-295 CNS = test system: SF-295 CNS
SF-539 CNS = test system: SF-539 CNS
SK-MEL-2 melanoma = test system: SK-MEL-2 melanoma
SK-MEL-28 melanoma = test system: SK-MEL-28 melanoma
SK-MEL-5 melanoma = test system: SK-MEL-5 melanoma
SK-OV-3 ovarian = test system: SK-OV-3 ovarian
SN12C renal = test system: SN12C renal
SNB-19 CNS = test system: SNB-19 CNS
SNB-75 CNS = test system: SNB-75 CNS
SR leukemia = test system: SR leukemia
SW-620 colon = test system: SW-620 colon
T-47D breast = test system: T-47D breast
TK-10 renal = test system: TK-10 renal
U251 CNS = test system: U251 CNS
UACC-257 melanoma = test system: UACC-257 melanoma
UACC-62 melanoma = test system: UACC-62 melanoma
UO-31 renal = test system: UO-31 renal

N#Cc1cnc2ccc(-c3cnc4n[nH]nc4c3)cc2c1N1CCc2cc(F)c(Cl)cc21
GI50 (786-0 renal): 3.55 µM | TGI (786-0 renal): > 100 µM | GI50 (A498 renal): 1.87 µM | TGI (A498 renal): 6.69 µM | GI50 (A549 NSCLC): 3.92 µM | TGI (A549 NSCLC): 72.6 µM | GI50 (ACHN renal): 3.62 µM | TGI (ACHN renal): 15.3 µM | GI50 (BT-549 breast): 2.31 µM | TGI (BT-549 breast): 14.6 µM | GI50 (CAKI-1 renal): 2.99 µM | TGI (CAKI-1 renal): 25.2 µM | GI50 (CCRF-CEM leukemia): 3.69 µM | TGI (CCRF-CEM leukemia): 21.1 µM | GI50 (COLO 205 colon): 9.19 µM | TGI (COLO 205 colon): 34.3 µM | GI50 (DU-145 prostate): 4.25 µM | TGI (DU-145 prostate): 66 µM | GI50 (EKVX NSCLC): 3.26 µM | TGI (EKVX NSCLC): 18.5 µM | GI50 (HCC-2998 colon): 2.85 µM | TGI (HCC-2998 colon): 14.9 µM | GI50 (HCT-116 colon): 6.44 µM | TGI (HCT-116 colon): 25.3 µM | GI50 (HCT-15 colon): 2.71 µM | TGI (HCT-15 colon): 14 µM | GI50 (HL-60(TB) leukemia): 11.5 µM | TGI (HL-60(TB) leukemia): 43.6 µM | GI50 (HOP-62 NSCLC): 3.45 µM | TGI (HOP-62 NSCLC): 38.7 µM | GI50 (HOP-92 NSCLC): 1.83 µM | TGI (HOP-92 NSCLC): 7.97 µM | GI50 (HS 578T breast): 1.18 µM | TGI (HS 578T breast): 5.26 µM | GI50 (HT29 colon): 5.73 µM | TGI (HT29 colon): 35 µM | GI50 (IGROV1 ovarian): 1.42 µM | TGI (IGROV1 ovarian): 6.19 µM | GI50 (K-562 leukemia): 4.67 µM | TGI (K-562 leukemia): > 100 µM | GI50 (KM12 colon): 4.66 µM | TGI (KM12 colon): 32.3 µM | GI50 (LOX IMVI melanoma): 1.76 µM | TGI (LOX IMVI melanoma): 11.4 µM | GI50 (M14 melanoma): 5.15 µM | TGI (M14 melanoma): 38.2 µM | GI50 (MALME-3M melanoma): 2.91 µM | TGI (MALME-3M melanoma): 16.4 µM | GI50 (MCF7 breast): 1.92 µM | TGI (MCF7 breast): 14 µM | GI50 (MDA-MB-231 breast): 3.64 µM | TGI (MDA-MB-231 breast): 23.3 µM | GI50 (MDA-MB-435): 3.73 µM | TGI (MDA-MB-435): 28.6 µM | GI50 (MOLT-4 leukemia): 2.8 µM | TGI (MOLT-4 leukemia): 11.4 µM | GI50 (NCI-H226 lung): 2.2 µM | TGI (NCI-H226 lung): 20 µM | GI50 (NCI-H23 lung): 3.16 µM | TGI (NCI-H23 lung): 16.1 µM | GI50 (NCI-H460 lung): 3.48 µM | TGI (NCI-H460 lung): 17.4 µM | GI50 (NCI-H522 lung): 2.82 µM | TGI (NCI-H522 lung): 16.7 µM | GI50 (NCI/ADR-RES ovarian): 12.8 µM | TGI (NCI/ADR-RES ovarian): 53.3 µM | GI50 (OVCAR-3 ovarian): 2.97 µM | TGI (OVCAR-3 ovarian): 24 µM | GI50 (OVCAR-4 ovarian): 2.66 µM | TGI (OVCAR-4 ovarian): 22.3 µM | GI50 (OVCAR-5 ovarian): 4.07 µM | TGI (OVCAR-5 ovarian): 65.1 µM | GI50 (OVCAR-8 ovarian): 4.62 µM | TGI (OVCAR-8 ovarian): > 100 µM | GI50 (PC-3 prostate): 3.11 µM | TGI (PC-3 prostate): 25.5 µM | GI50 (RPMI-8226 leukemia): 3.02 µM | TGI (RPMI-8226 leukemia): 42.5 µM | GI50 (SF-268 CNS): 3.22 µM | TGI (SF-268 CNS): 84.6 µM | GI50 (SF-295 CNS): 2.54 µM | TGI (SF-295 CNS): 13.3 µM | GI50 (SF-539 CNS): 3.17 µM | TGI (SF-539 CNS): 18.9 µM | GI50 (SK-MEL-2 melanoma): 2.74 µM | TGI (SK-MEL-2 melanoma): 12.7 µM | GI50 (SK-MEL-28 melanoma): 3.68 µM | TGI (SK-MEL-28 melanoma): 33.6 µM | GI50 (SK-MEL-5 melanoma): 2.83 µM | TGI (SK-MEL-5 melanoma): 8.47 µM | GI50 (SK-OV-3 ovarian): 3.52 µM | TGI (SK-OV-3 ovarian): 19.2 µM | GI50 (SN12C renal): 3.27 µM | TGI (SN12C renal): 41.7 µM | GI50 (SNB-19 CNS): 3.9 µM | TGI (SNB-19 CNS): 77.9 µM | GI50 (SNB-75 CNS): 0.395 µM | TGI (SNB-75 CNS): 5.52 µM | GI50 (SR leukemia): 2.3 µM | TGI (SR leukemia): 25.8 µM | GI50 (SW-620 colon): 5.2 µM | TGI (SW-620 colon): 24.6 µM | GI50 (T-47D breast): 1.68 µM | TGI (T-47D breast): 8 µM | GI50 (TK-10 renal): 3.23 µM | TGI (TK-10 renal): 28.6 µM | GI50 (U251 CNS): 4.66 µM | TGI (U251 CNS): 86.6 µM | GI50 (UACC-257 melanoma): 5.03 µM | TGI (UACC-257 melanoma): 44.2 µM | GI50 (UACC-62 melanoma): 2.63 µM | TGI (UACC-62 melanoma): 12.6 µM | GI50 (UO-31 renal): 1.13 µM | TGI (UO-31 renal): 11.1 µM
